Data as given in PubChem BioAssay (NCI).
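Following 48 hours of exposure in 96-well plates, responses at five concentrations were used to interpolate endpoints linearly. GI50 = concentration required for 50% inhibition of growth. The concentration for full growth arrest is given as TGI.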

Assays:
Assay in all cases: DTP human tumour cell line panel, 48 h
[1] = system: K-562 leukemia
[2] = system: TK-10 renal
[3] = system: A549 NSCLC
[4] = system: MDA-MB-435
[5] = system: SW-620 colon
[6] = system: SK-MEL-5 melanoma
[7] = system: U251 CNS
[8] = system: MOLT-4 leukemia
[9] = system: NCI-H522 lung
[10] = system: 786-0 renal
[11] = system: IGROV1 ovarian
[12] = system: SK-MEL-28 melanoma
[13] = system: SN12C renal
[14] = system: KM12 colon
[15] = system: HOP-62 NSCLC
[16] = system: UACC-62 melanoma
[17] = system: UACC-257 melanoma
[18] = system: MDA-MB-231 breast
[19] = system: HOP-92 NSCLC
[20] = system: OVCAR-4 ovarian
[21] = system: LOX IMVI melanoma
[22] = system: HCT-116 colon
[23] = system: RPMI-8226 leukemia
[24] = system: EKVX NSCLC
[25] = system: SK-MEL-2 melanoma
[26] = system: OVCAR-5 ovarian
[27] = system: SF-295 CNS
[28] = system: M14 melanoma
[29] = system: HCC-2998 colon
[30] = system: ACHN renal
[31] = system: UO-31 renal
[32] = system: SK-OV-3 ovarian
[33] = system: CCRF-CEM leukemia
[34] = system: DU-145 prostate
[35] = system: PC-3 prostate
[36] = system: HS 578T breast
[37] = system: MCF7 breast
[38] = system: HT29 colon
[39] = system: A498 renal
[40] = system: NCI-H226 lung
[41] = system: SF-268 CNS
[42] = system: SNB-75 CNS
[43] = system: BT-549 breast
[44] = system: NCI/ADR-RES ovarian
[45] = system: COLO 205 colon
[46] = system: OVCAR-3 ovarian
[47] = system: CAKI-1 renal
[48] = system: SR leukemia
[49] = system: OVCAR-8 ovarian
[50] = system: NCI-H23 lung
[51] = system: SF-539 CNS
[52] = system: HCT-15 colon
[53] = system: MALME-3M melanoma
[54] = system: HL-60(TB) leukemia
[55] = system: T-47D breast
[56] = system: NCI-H460 lung
[57] = system: RXF 393 renal
[58] = system: SNB-19 CNS

CC(=O)c1c(C)[nH]c(-c2nc3ccc(N4CCN(C)CC4)cc3[nH]2)c1-c1ccc(OCC2CCOCC2)cc1 gave a GI50 [1] of 370 nM, a TGI [1] of 9080 nM and a GI50 [2] of 306 nM. It also gave a TGI [2] of 16800 nM, a GI50 [3] of 714 nM and a TGI [3] of 17800 nM. It also gave a GI50 [4] of 477 nM, a TGI [4] of 12200 nM and a GI50 [5] of 1680 nM. For the same compound, the TGI [5] was 18000 nM, the GI50 [6] was 966 nM and the TGI [6] was 3170 nM. It also gave a GI50 [7] of 2100 nM, a TGI [7] of 17500 nM and a GI50 [8] of 1630 nM. For the same compound, the TGI [8] was 20600 nM, the GI50 [9] was 548 nM and the TGI [9] was 13800 nM. For the same compound, the GI50 [10] was 1310 nM, the TGI [10] was 14500 nM and the GI50 [11] was 854 nM. It also gave a TGI [11] of 12800 nM, a GI50 [12] of 1620 nM and a TGI [12] of 17000 nM. For the same compound, the GI50 [13] was 1310 nM, the TGI [13] was 17400 nM and the GI50 [14] was 924 nM. The TGI [14] was 14600 nM, the GI50 [15] was 524 nM and the TGI [15] was 14700 nM. The GI50 [16] was 172 nM, the TGI [16] was 11200 nM and the GI50 [17] was 789 nM. It also gave a TGI [17] of 4420 nM, a GI50 [18] of 946 nM and a TGI [18] of 16900 nM. It also gave a GI50 [19] of 110 nM, a TGI [19] of 2790 nM and a GI50 [20] of 803 nM. For the same compound, the TGI [20] was 32900 nM, the GI50 [21] was 318 nM and the TGI [21] was 1450 nM. It also gave a GI50 [22] of 714 nM, a TGI [22] of 12700 nM and a GI50 [23] of 251 nM. For the same compound, the TGI [23] was 1420 nM, the GI50 [24] was 8360 nM and the TGI [24] was 37200 nM. For the same compound, the GI50 [25] was 2000 nM, the TGI [25] was 16500 nM and the GI50 [26] was 1620 nM. It also gave a TGI [26] of 32200 nM, a GI50 [27] of 2670 nM and a TGI [27] of 15300 nM. For the same compound, the GI50 [28] was 630 nM, the TGI [28] was 4640 nM and the GI50 [29] was 766 nM. It also gave a TGI [29] of 3310 nM, a GI50 [30] of 777 nM and a TGI [30] of 12400 nM. For the same compound, the GI50 [31] was 207 nM, the TGI [31] was 6810 nM and the GI50 [32] was 377 nM. For the same compound, the TGI [32] was 11100 nM, the GI50 [33] was 654 nM and the TGI [33] was > 47100 nM. The GI50 [34] was 5090 nM, the TGI [34] was 24800 nM and the GI50 [35] was 693 nM. For the same compound, the TGI [35] was 19300 nM, the GI50 [36] was 346 nM and the TGI [36] was 8710 nM. The GI50 [37] was 218 nM, the TGI [37] was 11600 nM and the GI50 [38] was 302 nM. For the same compound, the TGI [38] was 20500 nM, the GI50 [39] was 345 nM and the TGI [39] was 2200 nM. The GI50 [40] was 1870 nM, the TGI [40] was 21200 nM and the GI50 [41] was 3520 nM. The TGI [41] was 20100 nM, the GI50 [42] was 36.5 nM and the TGI [42] was 887 nM. The GI50 [43] was 3400 nM, the TGI [43] was 18000 nM and the GI50 [44] was 1020 nM. It also gave a TGI [44] of 30500 nM, a GI50 [45] of 334 nM and a TGI [45] of 4650 nM. It also gave a GI50 [46] of 889 nM, a TGI [46] of 14000 nM and a GI50 [47] of 326 nM. It also gave a TGI [47] of 12600 nM, a GI50 [48] of 685 nM and a TGI [48] of 5730 nM. For the same compound, the GI50 [49] was 1500 nM, the TGI [49] was 27900 nM and the GI50 [50] was 1320 nM. It also gave a TGI [50] of 18300 nM, a GI50 [51] of 1240 nM and a TGI [51] of 12300 nM. For the same compound, the GI50 [52] was 456 nM, the TGI [52] was 5800 nM and the GI50 [53] was 720 nM. The TGI [53] was 2570 nM, the GI50 [54] was 129 nM and the TGI [54] was 785 nM. For the same compound, the GI50 [55] was 445 nM, the TGI [55] was 20600 nM and the GI50 [56] was 2390 nM. For the same compound, the TGI [56] was 19400 nM, the GI50 [57] was 696 nM and the TGI [57] was 2830 nM. It also gave a GI50 [58] of 2200 nM and a TGI [58] of 25100 nM.
